This is an account of results in article PMC3636874, “An Antedrug of the CXCL12 Neutraligand Blocks Experimental Allergic Asthma without Systemic Effect in Mice” (The Journal of Biological Chemistry, 2013).

Series [1] has as its system inflammatory cell recruitment in the airways of OVA-sensitized and challenged BALB/c mice. As to the kind of experiment: 8-day murine model of airway hypereosinophilia (OVA sensitization and challenge), cell counts in BALF. It counts as in vivo, mouse. Particulars: intranasal 300 nmol/kg in 10% HP-βCD; for effect on eosinophil / inflammatory cell recruitment in BALF after OVA challenge, intranasal: 2 h before each challenge. The method, then:
The in vivo activity of the compounds was assessed in an 8-day model of hypereosinophilia created by immunization and challenge to ovalbumin in mice. Briefly, 9-week-old male BALB/c mice were sensitized by intraperitoneal injection of a mixture of 50 μg of ovalbumin (OVA, grade V; Sigma-Aldrich) adsorbed on aluminum hydroxide (2 mg; Sigma-Aldrich) in 0.1 ml of saline on days 0, 1, and 2. Mice were challenged intranasally with 10 μg of OVA in 25 μl of saline (12.5 μl/nostril) on days 5, 6, and 7. Control mice received intraperitoneal and intranasal administrations of saline alone. Intranasal administrations were performed under anesthesia with 50 mg/kg ketamine and 3.33 mg/kg xylazine given intraperitoneally. Food and water were supplied ad libitum. Animal experimentation was conducted with the approval of the government body that regulates animal research in France. The chalcone compounds were administered either by the intraperitoneal or intranasal routes. In a first set of experiments, mice received either chalcone 4 or carbonitrile-chalcone 4 solubilized in PBS with 10% HP-βCD (C0926, Sigma) by intranasal injection 2 h before each nasal OVA or saline challenge. In a second set of experiments, mice received CN-chalcone 4, vanillin, or parachlorobenzoylacetonitrile intranasally, in PBS with HP-βCD 10%, 2 h before each OVA or saline challenge. In the last set of experiments, mice received chalcone 4 or CN-chalcone 4 in suspension in carboxymethylcellulose 1% or solubilized in PBS with HP-βCD 10% and administered by intraperitoneal injection 2 h before each OVA or saline challenge. Collection of bronchoalveolar lavage fluid (BALF) was performed 24 h after the last OVA challenge. Mice were deeply anesthetized by intraperitoneal injection of 150 mg/kg ketamine and 10 mg/kg xylazine. A plastic canula was inserted into the trachea, and airways were lavaged by 10 instillations of 0.5 ml of ice-cold saline supplemented with 2.6 mM EDTA (saline-EDTA). Total and differential cell counts in the BALF were performed after centrifugation (300 × g for 5 min at 4 °C) to pellet cells. Erythrocytes were lysed by hypotonic shock by the addition of 1.5 ml of distilled H2O, followed by the addition of 0.5 ml of 0.6 M KCl. Cells were centrifuged and resuspended in 500 μl of ice-cold saline-EDTA, and total cell counts were determined using a hemocytometer (Neubauer's chamber). Differential cell counts were assessed on cytologic preparation obtained by cytocentrifugation (Cytospin 3, Shandon Ltd.) of 200 μl of diluted BALF (250,000 cells/ml in ice-cold saline-EDTA). Slides were stained with Hemacolor (Merck), and counts were performed on at least 400 cells for each preparation. Differential counts were expressed as absolute numbers or as a percentage of the total number of cells.
The in vivo activity of CN-chalcone 4 was assayed in a recently developed 8-day mouse model of airway hypereosinophilia ([24]). In this model, mice are sensitized by intraperitoneal injection of OVA (50 μg) adsorbed on 2 mg of aluminum hydroxide in 0.1 ml of saline on days 0, 1, and 2. Mice are then challenged intranasally with 10 μg of OVA in 25 μl of saline (12.5 μl/nostril) on days 5, 6, and 7. Drugs to be tested can be administered either systemically by the intraperitoneal route or locally by the intranasal route. The intranasal route mimics the inhalation exposure used in humans, which is the preferred and well accepted administration for inflamed airway treatment, in particular asthma. Thus, unless otherwise stated, drugs were administered intranasally in this study. Due to limited solubility of chalcone 4 (9 ± 1 μM) and CN-chalcone 4 (16 ± 2 μM) in saline buffer, drugs were dissolved in physiological solutions complemented with HP-βCD (10%, w/w). Under such conditions, chalcone 4 and CN-chalcone 4 could be dissolved at maximal concentrations reaching 690 ± 44 and 493 ± 36 μM, respectively.

Series [2] deals with T1, CXCL12 binding to CXCR4 (Homo sapiens, UniProt P48061).
T1 construct: expressed in transfected cells
Also on record: method as in PMID 18556651. Particulars: cited from earlier work.

Series [3] deals with T1, CXCL12 binding to CXCR4. As to the kind of experiment: FRET-based binding of CXCL12-TR to EGFP-hCXCR4 (competition). To be noted: concentrations up to 10 μM. The procedure: FRET-based binding experiments were carried out as described ([26], [46]). Human embryonic kidney 293 cells expressing the fusion receptor EGFP-hCXCR4 were harvested in PBS (137 mM NaCl, 2.7 mM KCl, 4.3 mM Na2PO4·7H2O, 1.4 mM KH2PO4, pH 7.4) supplemented with 5 mM EDTA, pH 7.4, centrifuged, and resuspended in HEPES-bovine serum albumin (BSA) buffer (10 mM HEPES, 137.5 mM NaCl, 1.25 mM MgCl2, 1.25 mM CaCl2, 6 mM KCl, 10 mM glucose, 0.4 mM NaH2PO4, 0.1% bovine serum albumin (w/v), pH 7.4). Cells were used at a concentration of 10^6 cells/ml. Apparent affinities of the different ligands were determined by real-time fluorescence monitoring ligand-receptor interactions. […] Fluorescence emitted at 510 nm (excitation at 470 nm) was recorded at 21 °C using a Fluorolog 2 spectrofluorimeter (SPEX) and sampled every 0.3 s. Binding of CXCL12-TR to EGFP-labeled CXCR4 was detected as a reversible decline of emission at 510 nm, due to energy transfer from excited EGFP to TR. For competition experiments, the fluorescent chemokine was preincubated for 1 h at room temperature with or without various concentrations of each chalcone. Then the premix was added, and fluorescence was recorded until equilibrium was reached (300 s). Data were analyzed using Kaleidagraph 3.08 software (Synergy Software, Reading, PA).

SMILES strings stand for the structures.

Regarding `O=C(/C=C/c1ccccc1)c1ccccc1` [chalcone 1, reference compound], in series [1], the “effect on eosinophil / inflammatory cell recruitment in BALF after OVA challenge, intranasal” value is “nor does it significantly attenuate eosinophil or any other inflammatory cell recruitment in the airways”. Besides, the “cell recruitment in the airways elicited by compound itself (saline-challenged mice), intranasal” value in series [1] (no OVA challenge) was “does not promote any inflammatory response per se”. The “activity upon CXCL12 binding to CXCR4” value in series [2] is “inactive”.

On to `N#CCC(=O)c1ccc(Cl)cc1` [pCBA, para-chlorobenzoylacetonitrile], for which the “binding-neutralizing activity (CXCL12-TR binding to EGFP-CXCR4)” value in series [3] is “Neither vanillin nor pCBA exhibits any binding-neutralizing activity”. Also, the “effect on eosinophil / inflammatory cell recruitment in BALF after OVA challenge, intranasal” value in series [1] is given as “no effect on eosinophil recruitment in the airways”.

Take `COc1cc(C=O)ccc1O` [vanillin]: in series [3], the “binding-neutralizing activity (CXCL12-TR binding to EGFP-CXCR4)” value is “Neither vanillin nor pCBA exhibits any binding-neutralizing activity”. Further, the “effect on eosinophil / inflammatory cell recruitment in BALF after OVA challenge, intranasal” value in series [1] is “no effect on eosinophil recruitment in the airways”.
